Assays:
[1] = Fluorescence selectivity of the probe for ClO- over other ions/species
[2] = Fluorescence titration of the probe with ClO-; conditions: excitation 440 nm
[3] = test system: zebrafish (斑马鱼); assay: Fluorescence bioimaging of ClO- in zebrafish; type: in vivo
[4] = UV-vis absorption spectra of the probe on addition of ClO-; conditions: aqueous solution, probe 10 μM and 5 μM, ClO- added
[5] = test system: MRC-5 cells (人胚肺细胞(MRC-5)); assay: Fluorescence bioimaging of ClO- in MRC-5 cells; type: cell-based, human

## O=C1NC(=S)NC(=O)C1=Cc1ccc2cc(O)ccc2c1 [小分子探针]
[1]; probe 2 μM in EtOH-H2O (v/v=1:10), 1.0 eq SO3 2-, NO, 1O2, ·OH, PBO·, TBHP, DBTP, Cys, GSH, H2O2
  fluorescence change with anions/species other than ClO-: 没有产生明显变化
[1]; probe 2 μM in EtOH-H2O (v/v=1:10), ClO- 1.0 eq
  fluorescence intensity after addition of ClO-: 明显
[1]; probe 2 μM in EtOH-H2O (v/v=1:10), anions 1.0 eq
  selectivity for ClO-: 高选择性
[1]; probe mixed with other ions (not hypochlorite)
  fluorescence change with other ions: 荧光基本上不发生变化
[1]; probe with hypochlorite ion
  fluorescence intensity on reaction with hypochlorite ion: 荧光强度变强
[2]; probe 5 μM in water with ClO-
  maximum emission: 535 nm
[2]; probe 5 μM in water, 400-700 nm
  fluorescence intensity as a function of ClO- concentration: 随ClO-浓度增加而增强
[3]; 5-day-old zebrafish pretreated with probe, washed three times, then ClO- 6.0 μM
  red fluorescence in head and abdomen: 显着的红色荧光
[3]; 5-day-old zebrafish, free probe 2.0 μM, 20 min, without added ClO-
  red fluorescence in the abdomen: 弱而可见的 红色荧光
[3]; zebrafish
  tissue penetration ability: 高组织穿透能力
[4]
  absorption band at 440 nm on addition of ClO-: 逐渐减少
  new absorption peak after addition of ClO-: 515 nm
[5]; MRC-5 cells incubated with free probe, without added ClO-
  fluorescence signal in cells: 观察到可见荧光信号
[5]; MRC-5 cells incubated with probe 20 min, then ClO- 6.0 μM, observed immediately
  fluorescence intensity in the red channel: 显着荧光强度

Reference: patent publication CN111004186A, “一种小分子荧光探针及其制备方法与应用” (Wenzhou Medical University, priority 2019, dated 2020)
